# According to patent US11952611B2, “Methods and systems for detection of antibiotic resistance” (Laboratory Corporation of America Holdings, priority 2017, dated 2024):
# Assays:
# Type in all cases: cell-based, Staphylococcus aureus
# MRSA [1] = assay: Optimization of cefoxitin concentration (Table 2), MRSA strains
# Method: (§1) Bacterial strains were serially diluted to approximately 1×10^3 CFU/mL and transferred to a 96-well plate at 135 μL per well. 15 μL of cefoxitin was added to the wells to reach a final concentration of 1.4 μg/mL, 1.6 μg/mL, 1.8 μg/mL or 2.0 μg/mL. The plate was then sealed and incubated at 37° C. for 2 hours. 10 μL of recombinant phage (1.6×10^8 pfu/mL) was added to each well. The plate was then re-sealed and incubated at 37° C. for an additional 2 hours. A master mix was made containing 15 μL 5× lysis buffer, 50 μL luciferase assay buffer, and 1 μL luciferase substrate per well. 65 μL of master mix was added to each well. Luminescence from the reactions were read on a GLOMAX® Navigator and relative luminal units (RLU) for each reaction were plotted and analyzed. RLU values three times greater than an established background RLU level for LB (>750 RLU) were considered positive. The results, shown in Table 2, indicate that the recombinant phage are capable of detecting these bacterial strains. […] Positive results are in bold.
# MRSA [2] = assay: Recombinant phage luciferase assay, oxacillin vs cefoxitin (Table 1), MRSA strains
# Method: Bacterial strains were serially diluted to approximately 1×10^3 CFU/mL and transferred to a 96-well plate at 135 μL per well. 15 μL of oxacillin or cefoxitin were added to the wells to reach a final concentration of 1.0 μg/mL or 2.0 μg/mL of oxicillin or 2.0 μg/mL, 4.0 μg/mL, 8.0 μg/mL, or 10.0 μg/mL of cefoxitin. The plate was then sealed and incubated at 37° C. for 2 hours. 10 μL of recombinant phage (1.6×10^8 pfu/mL) was added to each well. The plate was then re-sealed and incubated at 37° C. for 2 hours. A master mix was made containing 15 μL 5× lysis buffer, 50 μL luciferase assay buffer, and 1 μL luciferase substrate per well. 65 μL of master mix was added to each well. Luminescence from the reactions was read on a GLOMAX® Navigator and relative luminal units (RLU) for each reaction were analyzed. RLU values three times greater than an established background RLU level for LB (>750 RLU) were considered positive. The results, shown in Table 1, indicate that the recombinant phage are capable of detecting the tested bacterial strains.
# BAA-1720 - MRSA = assay: Table 6, MRSA alone; settings: MSSA detected CFU 0, MRSA 38
# Method: Bacterial strains were serially diluted and transferred to a 96-well plate at 135 μL per well. 15 μL of cefoxitin was added to the wells to reach a final concentration of 1.8 μg/mL. The plate was then sealed and incubated at 37° C. for 2 hours or 3 hours. 10 μL of recombinant phage (1.6×10^8 pfu/mL) was added to each well. The plate was then re-sealed and incubated at 37° C. for an additional 1 or 2 hours. A master mix was made containing 15 μL 5× lysis buffer, 50 μL luciferase assay buffer, and 1 μL luciferase substrate per well. 65 μL of master mix was added to each well. Luminescence from the reactions was read on a GLOMAX® Navigator and relative luminal units (RLU) for each reaction were plotted and analyzed. RLU values three times greater than an established background RLU level for LB (>750 RLU) were considered positive. The results, shown in Table 6, indicate that samples with MRSA (38 CFU) can be distinguished from samples containing MSSA (up to 5088 CFU) using a 3-hour antibiotic/1-hour phage incubation protocol. Positive results are in bold. In Table 6, CFU values (318 CFU and 156 CFU) were experimentally validated by direct plating.
# MSSA = assay: Optimization of cefoxitin concentration (Table 2), MSSA strains
# Method: as §1
# [3] = strain AR0470 MRSA, detected CFU 314
# [4] = strain BAA-2313 MRSA, detected CFU 192
# [5] = strain AR0463 MRSA, detected CFU 419
# [6] = strain AR0465 MRSA, detected CFU 111
# [7] = strain AR0472 MRSA, detected CFU 190
# [8] = strain AR0476 MRSA, detected CFU 194
# [9] = strain AR0481 MRSA, detected CFU 43
# [10] = strain BAA-1720 MRSA, detected CFU 201
# [11] = strain 12600 MSSA, detected CFU 401
# [12] = strain AR0484 MSSA, detected CFU 107
# [13] = strain AR0485 MSSA, detected CFU 248
# [14] = strain AR0486 MSSA, detected CFU 163
# [15] = strain AR0487 MSSA, detected CFU 198
# [16] = strain AR0488 MSSA, detected CFU 360
# [17] = strain AR0489 MSSA, detected CFU 186
# [18] = strain AR0490 MSSA, detected CFU 109
# [19] = strain AR0491 MSSA, detected CFU 239
# [20] = strain AR0492 MSSA, detected CFU 130
# [21] = strain BAA-1721 MSSA, detected CFU 166
smiles,measurement,setting,value
"CO[C@@]1(NC(=O)Cc2cccs2)C(=O)N2C(C(=O)O)=C(COC(N)=O)CS[C@@H]21 [Cefoxitin, cefoxitin]",effect on positive signal,"MRSA [1]; 1.8 ug/mL, most of the tested MRSA strains",produced a positive signal
same,Cefoxitin Concentration 1.4 ug/mL,"MRSA [1]; strain AR0461 MRSA, detected CFU 140",9488 RLU
same,Cefoxitin Concentration 2 ug/mL,"MRSA [1]; strain AR0467 MRSA, detected CFU 198",6615 RLU
same,Cefoxitin Concentration 1.8 ug/mL,"MRSA [1]; strain AR0469 MRSA, detected CFU 473",13490 RLU
same,Cefoxitin Concentration 1.6 ug/mL,MRSA [1]; [3],2481 RLU
same,Cefoxitin Concentration 1.8 ug/mL,MRSA [1]; [3],2046 RLU
same,Cefoxitin Concentration 1.4 ug/mL,MRSA [1]; [4],8601 RLU
same,Cefoxitin Concentration 1.6 ug/mL,MRSA [1]; [4],5620 RLU
same,Cefoxitin Concentration 1.8 ug/mL,MRSA [1]; [4],3239 RLU
same,Cefoxitin Concentration 2 ug/mL,MRSA [1]; [4],2385 RLU
same,Cefoxitin (RLU) 2 ug/mL,MRSA [2]; [5],1125 RLU
same,Cefoxitin (RLU) 4 ug/mL,MRSA [2]; [5],349 RLU
same,Cefoxitin (RLU) 8 ug/mL,MRSA [2]; [5],287 RLU
same,Cefoxitin (RLU) 10 ug/mL,MRSA [2]; [5],246 RLU
same,Cefoxitin (RLU) 2 ug/mL,MRSA [2]; [6],7815 RLU
same,Cefoxitin (RLU) 4 ug/mL,MRSA [2]; [6],5254 RLU
same,Cefoxitin (RLU) 8 ug/mL,MRSA [2]; [6],4619 RLU
same,Cefoxitin (RLU) 10 ug/mL,MRSA [2]; [6],2869 RLU
same,Cefoxitin (RLU) 2 ug/mL,MRSA [2]; [7],3538 RLU
same,Cefoxitin (RLU) 4 ug/mL,MRSA [2]; [7],229 RLU
same,Cefoxitin (RLU) 8 ug/mL,MRSA [2]; [7],239 RLU
same,Cefoxitin (RLU) 10 ug/mL,MRSA [2]; [7],220 RLU
same,Cefoxitin (RLU) 2 ug/mL,MRSA [2]; [8],1202 RLU
same,Cefoxitin (RLU) 4 ug/mL,MRSA [2]; [8],213 RLU
same,Cefoxitin (RLU) 8 ug/mL,MRSA [2]; [8],204 RLU
same,Cefoxitin (RLU) 10 ug/mL,MRSA [2]; [8],248 RLU
same,Cefoxitin (RLU) 2 ug/mL,MRSA [2]; [9],3499 RLU
same,Cefoxitin (RLU) 4 ug/mL,MRSA [2]; [9],983 RLU
same,Cefoxitin (RLU) 8 ug/mL,MRSA [2]; [9],222 RLU
same,Cefoxitin (RLU) 10 ug/mL,MRSA [2]; [9],250 RLU
same,Cefoxitin (RLU) 2 ug/mL,MRSA [2]; [10],14910 RLU
same,Cefoxitin (RLU) 4 ug/mL,MRSA [2]; [10],11250 RLU
same,Cefoxitin (RLU) 8 ug/mL,MRSA [2]; [10],7123 RLU
same,Cefoxitin (RLU) 10 ug/mL,MRSA [2]; [10],6431 RLU
same,2 HR AB + 2 HR Phage 1.8 ug/mL,BAA-1720 - MRSA,4218 RLU
same,3 HR AB + 1 HR Phage 1.8 ug/mL,BAA-1720 - MRSA,3136 RLU
same,effect on positive signal,"MSSA; 1.8 ug/mL, most MSSA strains",selectively inhibit a positive signal
same,Cefoxitin Concentration 1.4 ug/mL,MSSA; [11],2489 RLU
same,Cefoxitin Concentration 1.6 ug/mL,MSSA; [11],1596 RLU
same,Cefoxitin Concentration 1.8 ug/mL,MSSA; [11],974 RLU
same,Cefoxitin Concentration 2 ug/mL,MSSA; [11],750 RLU
same,Cefoxitin Concentration 1.4 ug/mL,MSSA; [12],174 RLU
same,Cefoxitin Concentration 1.6 ug/mL,MSSA; [12],176 RLU
same,Cefoxitin Concentration 1.8 ug/mL,MSSA; [12],187 RLU
same,Cefoxitin Concentration 2 ug/mL,MSSA; [12],181 RLU
same,Cefoxitin Concentration 1.4 ug/mL,MSSA; [13],1328 RLU
same,Cefoxitin Concentration 1.6 ug/mL,MSSA; [13],812 RLU
same,Cefoxitin Concentration 1.8 ug/mL,MSSA; [13],655 RLU
same,Cefoxitin Concentration 2 ug/mL,MSSA; [13],404 RLU
same,Cefoxitin Concentration 1.4 ug/mL,MSSA; [14],4238 RLU
same,Cefoxitin Concentration 1.6 ug/mL,MSSA; [14],1743 RLU
same,Cefoxitin Concentration 1.8 ug/mL,MSSA; [14],1099 RLU
same,Cefoxitin Concentration 2 ug/mL,MSSA; [14],794 RLU
same,Cefoxitin Concentration 1.4 ug/mL,MSSA; [15],336 RLU
same,Cefoxitin Concentration 1.6 ug/mL,MSSA; [15],227 RLU
same,Cefoxitin Concentration 1.8 ug/mL,MSSA; [15],204 RLU
same,Cefoxitin Concentration 2 ug/mL,MSSA; [15],165 RLU
same,Cefoxitin Concentration 1.4 ug/mL,MSSA; [16],2274 RLU
same,Cefoxitin Concentration 1.6 ug/mL,MSSA; [16],1149 RLU
same,Cefoxitin Concentration 1.8 ug/mL,MSSA; [16],402 RLU
same,Cefoxitin Concentration 2 ug/mL,MSSA; [16],256 RLU
same,Cefoxitin Concentration 1.4 ug/mL,MSSA; [17],6208 RLU
same,Cefoxitin Concentration 1.6 ug/mL,MSSA; [17],3172 RLU
same,Cefoxitin Concentration 1.8 ug/mL,MSSA; [17],2029 RLU
same,Cefoxitin Concentration 2 ug/mL,MSSA; [17],870 RLU
same,Cefoxitin Concentration 1.4 ug/mL,MSSA; [18],1277 RLU
same,Cefoxitin Concentration 1.6 ug/mL,MSSA; [18],598 RLU
same,Cefoxitin Concentration 1.8 ug/mL,MSSA; [18],423 RLU
same,Cefoxitin Concentration 2 ug/mL,MSSA; [18],258 RLU
same,Cefoxitin Concentration 1.4 ug/mL,MSSA; [19],1438 RLU
same,Cefoxitin Concentration 1.6 ug/mL,MSSA; [19],676 RLU
same,Cefoxitin Concentration 1.8 ug/mL,MSSA; [19],518 RLU
same,Cefoxitin Concentration 2 ug/mL,MSSA; [19],338 RLU
same,Cefoxitin Concentration 1.4 ug/mL,MSSA; [20],1883 RLU
same,Cefoxitin Concentration 1.6 ug/mL,MSSA; [20],839 RLU
same,Cefoxitin Concentration 1.8 ug/mL,MSSA; [20],556 RLU
same,Cefoxitin Concentration 2 ug/mL,MSSA; [20],246 RLU
same,Cefoxitin Concentration 1.4 ug/mL,MSSA; [21],2753 RLU
same,Cefoxitin Concentration 1.6 ug/mL,MSSA; [21],1087 RLU
same,Cefoxitin Concentration 1.8 ug/mL,MSSA; [21],441 RLU
same,Cefoxitin Concentration 2 ug/mL,MSSA; [21],258 RLU
